Measurements reported in patent US10519193B2, “Steroidal compound, composition containing the same and use thereof” (Shenzhen TargetRx, Inc., priority 2016, dated 2019).
Blank lines part the entries; values can stand above or below the molecule they belong to.

Key:
[1] = Metabolic stability evaluation in human liver microsomes; type: in vitro ADME; conditions: for clearance compared to the non-deuterated compound / half-life compared to the non-deuterated compound / half-life at 1 μM / microsomal CLint at 1 μM: human liver microsome; for clearance compared to the non-deuterated compound / half-life compared to the non-deuterated compound / half-life of the deuterated prodrug: in words; for half-life at 1 μM / microsomal CLint at 1 μM: human liver microsomes, pH 7.4, 1 μM compound, 0.5 mg/mL protein; for half-life of the deuterated prodrug: metabolized abiraterone of the prodrug, liver microsomes, versus abiraterone acetate
Experimental: Experiments in microsomes: Human liver microsomes: 0.5 mg/mL, Xenotech; Coenzyme (NADPH/NADH): 1 mM, Sigma Life Science; Magnesium chloride: 5 mM, 100 mM phosphate buffer (pH 7.4).
Preparation of stock solution: Powder of the example compound was accurately weighed and dissolved in DMSO to 5 mM.
Preparation of phosphate buffer (100 mM, pH7.4): A pre-formulated 0.5M potassium dihydrogen phosphate (150 mL) was mixed with 0.5M dibasic potassium phosphate (700 mL). The pH of the mixture was adjusted to 7.4 with 0.5M dibasic potassium phosphate solution. The mixture was diluted 5-fold with ultrapure water before use, and magnesium chloride was added to obtain a phosphate buffer (100 mM) containing 100 mM potassium phosphate, 3.3 mM magnesium chloride, pH 7.4.
A NADPH regeneration system solution (containing 6.5 mM NADP, 16.5 mM G-6-P, 3 U/mL G-6-P D, 3.3 mM magnesium chloride) was prepared and placed on wet ice prior to use.
Preparation of stop solution: acetonitrile solution containing 50 ng/mL propranolol hydrochloride and 200 ng/mL tolbutamide (internal standard). 25057.5 μL of phosphate buffer (pH 7.4) was taken into a 50 mL centrifuge tube, to which 812.5 μL human liver microsomes were added, and mixed to obtain a liver microsome dilution solution with a protein concentration of 0.625 mg/mL. 25057.5 μL of phosphate buffer (pH 7.4) was taken into a 50 mL centrifuge tube, to which 812.5 μL SD rat liver microsomes were added, and mixed to obtain a liver microsome dilution solution with a protein concentration of 0.625 mg/mL.
Incubation of the samples: The stock solution of the respective compound was respectively diluted to 0.25 mM with an aqueous solution containing 70% acetonitrile, and used as a working solution, ready for use. 398 μL of the dilution solution of human liver microsomes or rat liver microsome were added to a 96-well incubation plate (N=2), respectively, and 2 μL of 0.25 mM working solution was added and mixed.
Metabolic stability assay: 300 μL of pre-chilled stop solution was added to each well of a 96-well deep well plate and placed on ice as a stop plate. The 96 well incubation plate and NADPH regeneration system were placed in a 37° C. water bath box, shaken at 100 rpm and pre-incubated for 5 min. 80 μL of incubation solution was taken out from each well of the incubation plate and added to the stop plate, mixed, and replenished with 20 μL of NADPH regeneration system solution as a 0-min sample. 80 μL of NADPH regeneration system solution was added to each well of the incubation plate to start the reaction and start counting. […] Separately, 100 μL of the reaction solution was taken at 10, 30, and 90 min reaction, respectively, added to a stop plate, and vortexed for 3 minutes to terminate the reaction. The stop plate was centrifuged at 5000×g at 4° C. for 4 min. 100 μL of the supernatant was added to a 96-well plate to which 100 μL of distilled water was previously added, mixed, and analyzed by LC-MS/MS.
Data analysis: The peak areas of the corresponding compound and internal standard were detected by LC-MS/MS system, and the ratio of the peak area of the compound to the internal standard was calculated.

Human CYP17 [2] = target: T1, Human CYP17 (Homo sapiens, UniProt P05093); test: CYP17 hydroxylase assay; type: biochemical; parameters: made in house; host or cells: E. coli (membrane preparation)
T1 sequence (P05093 1-508): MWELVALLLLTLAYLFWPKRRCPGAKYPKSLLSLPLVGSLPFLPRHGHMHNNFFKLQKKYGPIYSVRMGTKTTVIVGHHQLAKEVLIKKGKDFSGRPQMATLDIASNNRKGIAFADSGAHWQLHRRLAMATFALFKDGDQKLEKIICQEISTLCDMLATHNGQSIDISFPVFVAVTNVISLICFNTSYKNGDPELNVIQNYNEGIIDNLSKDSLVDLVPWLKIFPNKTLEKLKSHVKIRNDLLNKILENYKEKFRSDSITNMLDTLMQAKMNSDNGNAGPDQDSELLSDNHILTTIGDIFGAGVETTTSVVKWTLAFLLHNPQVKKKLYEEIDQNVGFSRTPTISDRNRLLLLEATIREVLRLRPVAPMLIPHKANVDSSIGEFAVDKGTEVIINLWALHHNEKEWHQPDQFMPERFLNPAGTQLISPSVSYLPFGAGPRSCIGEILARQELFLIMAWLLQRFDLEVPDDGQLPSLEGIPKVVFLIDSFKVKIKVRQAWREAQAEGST
Experimental: E. coli was transformed to express active human CYP17, and a membrane prepared from the transformed E. coli was used as a source of the enzyme. […] The reaction mixture was incubated at 37° C. for 120 minutes and 200 μL of 0.02 N HCl in acetonitrile was added to stop the reaction. The sample was then spun at […] and 200 μL of the supernatant was transferred to a clean tube for determination. The reaction product 17-alpha pregnenolone was measured by LC/MS.

Human CYP17 [3] = target: T1, Human CYP17; test: CYP17 lyase assay; type: biochemical; parameters: made in house; host or cells: HEK293 cells (microsomes)
Experimental: Human CYP17 was expressed in HEK293 cells and microsome were prepared, which was subsequently used as a source of enzyme for lyase assays. The reaction includes 200 nM [3H]-hydroxy pregnenolone (ARC), 200 nM 17-hydroxy pregnenolone (Sigma), 2 mM NADPH (Calbiochem), and CYP 17-HEK293 microsomes, which were incubated for 20 minutes at room temperature in the presence of DMSO or a test compound. Compounds were dissolved in DMSO and serially diluted. The reaction was stopped by the addition of 0.2N HCl and the product was captured using an anti-mouse YSi SPA Bead (GE) conjugated anti-DHEA monoclonal antibody (Abcam). The signal intensity determined by Packard Top Count was used to calculate the percent inhibition and IC50 values.

[4] = system: PSA protein secretion, LNcaP cells; test: Inhibition of cellular PSA protein secretion; type: cell-based; conditions: Homo sapiens, 1 nM DHT, 48 hours, ELISA, read-out: Inhibition of PSA proteins, IC50
Experimental: Experimental steps: 1. The original culture medium was replaced with culture medium containing 10% Charcoal Stripped FBS, and cells were allowed to starve in culture flasks for 24 hours; 2. Cells were digested and counted, and LNcaP cells were seeded into 96-well plates at 10,000 cells/well and incubated overnight; 3. The DHT and compound were added to the existing medium at a set concentration, the final concentration of DHT was 1 nM, the initial concentration of the compound was 50000 nM, 5-fold dilution was carried out, 8 concentration gradients were obtained, and incubation was carried out for 48 hours; 4. Cell culture supernatants were collected and PSA protein levels were measured according to the ELISA kit instructions. IC50 was calculated using GraphPad Prism based on the inhibition rate at each concentration, and the results were shown in Table 2 below.

[5] = system: castration-resistant prostate cancer; conditions: patients, cited from earlier work
[6] = Pharmacokinetic evaluation in rats; type: in vivo; conditions: male, Sprague-Dawley, plasma, 5 mg/kg; rat, PO
Experimental: 8 male Sprague-Dawley rats (7-8 weeks old, and weighing approximately 210 g) were divided into two groups with 4 rats in each group, a single oral dose of 5 mg/kg given to the two groups were (a) control group: (3β)-17-(3)-pyridyl)androst-5,16-dienol and (b) test group: Examples 1-13, and pharmacokinetic differences between the two groups were compared.
The rats were raised on standard food and water. Fasting was started 16 hours before the test. The drug was dissolved with PEG400 and dimethyl sulfoxide. The blood samples were collected from eyelids at the time points of 0.083 hours, 0.25 hours, 0.5 hours, […], 2 hours, 4 hours, 6 hours, 8 hours, 12 hours, and 24 hours after administration.
Rats were briefly anesthetized after inhalation of diethyl ether and 300 μL of blood sample was collected from the eyelids into test tubes. There was 30 μL of 1% heparin salt solution in the test tube. Tubes were dried at 60° C. overnight before use. After the blood sample was collected at a later time point, the rats were sacrificed after ether anesthesia.
Immediately after the collection of the blood sample, the test tube was gently inverted at least 5 times to ensure sufficient mixing and then placed on ice. The blood sample was centrifuged at 5000 rpm at 4° C. for 5 minutes to separate the plasma from the red blood cells. 100 μL of plasma was aspirated into a clean plastic centrifuge tube with a pipette, marking with the name of the compound and time point. Plasma was stored at −80° C. prior to analysis. The concentration of the compound of the present disclosure in plasma was determined by LC-MS/MS. The pharmacokinetic parameters were calculated based on the blood concentration of each animal at different time points.

[7] = Pharmacokinetic evaluation in rats; type: in vivo; conditions: male, Sprague-Dawley, plasma; rat, IV
[8] = hCYP17 E. coli membrane, 25 μM pregnenolone, 37° C. 120 minutes, read-out: CYP17 hydroxylase IC50
[9] = CYP17-HEK293 microsomes, 20 minutes at room temperature, read-out: CYP17 lyase IC50
[10] = abiraterone acetate plus prednisone

Structure (SMILES): [2H]C1=C(c2cccnc2)[C@@]2(C)CCC3C(CC=C4C[C@@H](O)CC[C@@]43C)C2C1 (stereo partly drawn) [Example 8, (3β)-17-(3-pyridyl)androst-5,16-dienol-16-d]
clearance compared to the non-deuterated compound [1]: reduced
half-life compared to the non-deuterated compound [1]: prolonged
half-life at 1 μM [1]: 0.855 h
microsomal CLint at 1 μM [1]: 24.3 µL/min/mg
IC50 (Human CYP17 [2]): < 20 nM
IC50 (Human CYP17 [3]): < 10 nM

Structure (SMILES): [2H]c1cncc(C2=CCC3C4CCC5=CC(=O)CC[C@]5(C)C4CC[C@]23C)c1 (stereo partly drawn) [Example 11, (3β)-17-(3-pyridyl-5-d)androst-4,16-dien-3-one]
IC50 [4]: < 10 nM
IC50 (Human CYP17 [2]; [8]): < 20 nM
IC50 (Human CYP17 [3]; [9]): < 10 nM

Structure (SMILES): [2H]c1cncc(C2=CCC3C4CC=C5C[C@@H](OC(C)=O)CC[C@]5(C)C4CC[C@]23C)c1 (stereo partly drawn) [Example 3, (3β)-17-(3-pyridyl-5-d)androst-5,16-dienyl Acetate]
half-life of the deuterated prodrug [1]: significantly prolonged

Structure (SMILES): [2H]c1cncc(C2=CCC3C4CC=C5C[C@@H](O)CC[C@]5(C)C4CC[C@]23C)c1 (stereo partly drawn) [Example 2, (3β)-17-(3-pyridyl-5-d)androst-5,16-dienol]
clearance compared to the non-deuterated compound [1]: reduced
half-life compared to the non-deuterated compound [1]: prolonged
half-life at 1 μM [1]: 1.19 h
microsomal CLint at 1 μM [1]: 19.5 µL/min/mg
IC50 (Human CYP17 [2]; [8]): < 20 nM
IC50 (Human CYP17 [3]; [9]): < 10 nM

Structure (SMILES): [2H]c1ccc(C2=CCC3C4CC=C5C[C@@H](O)CC[C@]5(C)C4CC[C@]23C)cn1 (stereo partly drawn) [Example 1, (3β)-17-(3-pyridyl-6-d)androst-5,16-dienol]
clearance compared to the non-deuterated compound [1]: reduced
half-life compared to the non-deuterated compound [1]: prolonged
half-life at 1 μM [1]: > 2.42 h
microsomal CLint at 1 μM [1]: < 9.6 µL/min/mg
IC50 (Human CYP17 [2]; [8]): < 20 nM
IC50 (Human CYP17 [3]; [9]): < 10 nM

Structure (SMILES): C[C@]12CC[C@H](O)CC1=CC[C@@H]1[C@@H]2CC[C@]2(C)C(c3cccnc3)=CC[C@@H]12 [Abiraterone, (3β)-17-(3-pyridinyl)androst-5,16-dienol, reference compound]
half-life at 1 μM [1]: 0.667 h
microsomal CLint at 1 μM [1]: 34.7 µL/min/mg
IC50 (Human CYP17 [3]; [9]): < 10 nM

More lines, main results first:

AUC(0-inf) [6]: 1320 ng·h/mL
AUC(0-t) [6]: 1290 ng·h/mL
Cmax [6]: 506 ng/mL
Tmax [6]: 1.33 h
AUC(0-inf) [7]: 192 ng·h/mL
AUC(0-t) [7]: 110 ng·h/mL
Cmax [7]: 10.6 ng/mL
Tmax [7]: 2 h
Structure (SMILES): CC(=O)O[C@H]1CC[C@@]2(C)C(=CC[C@@H]3[C@@H]2CC[C@]2(C)C(c4cccnc4)=CC[C@@H]32)C1 [Abiraterone acetate, reference compound]
risk of death reduced ([5]; abiraterone acetate plus prednisone vs placebo plus prednisone): 35%
Median survival [5, 10]: 14.8 months
Median survival longer than placebo plus prednisone [5, 10]: 3.9 months

half-life of the deuterated prodrug [1]: significantly prolonged
Structure (SMILES): [2H]C([2H])([2H])C(=O)O[C@H]1CC[C@@]2(C)C(=CCC3C2CC[C@]2(C)C(c4cccnc4)=CCC32)C1 (stereo partly drawn) [Example 4, (3β)-17-(3-pyridyl)androst-5,16-dienyl d3-acetate]

half-life of the deuterated prodrug [1]: significantly prolonged
AUC(0-inf) [6]: 2550 ng·h/mL
AUC(0-t) [6]: 2480 ng·h/mL
Cmax [6]: 549 ng/mL
Tmax [6]: 1.67 h
Cmax [7]: 43.6 ng/mL
Tmax [7]: 17.3 h
Structure (SMILES): [2H]C1=C(c2cccnc2)[C@@]2(C)CCC3C(CC=C4C[C@@H](OC(=O)C([2H])([2H])[2H])CC[C@@]43C)C2C1 (stereo partly drawn) [Example 9, (3β)-17-(3-pyridyl)androst-5,16-dienyl-16-d d3-acetate]

AUC(0-inf) [6]: 2440 ng·h/mL
AUC(0-t) [6]: 2420 ng·h/mL
Cmax [6]: 813 ng/mL
Tmax [6]: 1.67 h
AUC(0-inf) [7]: 274 ng·h/mL
AUC(0-t) [7]: 224 ng·h/mL
Cmax [7]: 24.1 ng/mL
Tmax [7]: 3 h
Structure (SMILES): [2H]c1ccc(C2=CCC3C4CC=C5C[C@@H](OC(C)=O)CC[C@]5(C)C4CC[C@]23C)cn1 (stereo partly drawn) [Example 5, (3β)-17-(3-pyridyl-6-d)androst-5,16-dienyl Acetate]

half-life of the deuterated prodrug [1]: significantly prolonged
Structure (SMILES): [2H]c1cncc(C2=CCC3C4CC=C5C[C@@H](OC(=O)C([2H])([2H])[2H])CC[C@]5(C)C4CC[C@]23C)c1 (stereo partly drawn) [Example 7, (3β)-17-(3-pyridyl-5-d)androst-5,16-dienyl d3-acetate]
